Consider six compounds from ChEMBL document CHEMBL4428052, “Substrate-Guided Design of Selective FXIIa Inhibitors Based on the Plant-Derived Momordica cochinchinensis Trypsin Inhibitor-II (MCoTI-II) Scaffold” (J Med Chem, 2016).

The target of one experiment is T1, Coagulation factor XII (Homo sapiens, UniProt P00748).
T1 sequence (P00748 whole entry): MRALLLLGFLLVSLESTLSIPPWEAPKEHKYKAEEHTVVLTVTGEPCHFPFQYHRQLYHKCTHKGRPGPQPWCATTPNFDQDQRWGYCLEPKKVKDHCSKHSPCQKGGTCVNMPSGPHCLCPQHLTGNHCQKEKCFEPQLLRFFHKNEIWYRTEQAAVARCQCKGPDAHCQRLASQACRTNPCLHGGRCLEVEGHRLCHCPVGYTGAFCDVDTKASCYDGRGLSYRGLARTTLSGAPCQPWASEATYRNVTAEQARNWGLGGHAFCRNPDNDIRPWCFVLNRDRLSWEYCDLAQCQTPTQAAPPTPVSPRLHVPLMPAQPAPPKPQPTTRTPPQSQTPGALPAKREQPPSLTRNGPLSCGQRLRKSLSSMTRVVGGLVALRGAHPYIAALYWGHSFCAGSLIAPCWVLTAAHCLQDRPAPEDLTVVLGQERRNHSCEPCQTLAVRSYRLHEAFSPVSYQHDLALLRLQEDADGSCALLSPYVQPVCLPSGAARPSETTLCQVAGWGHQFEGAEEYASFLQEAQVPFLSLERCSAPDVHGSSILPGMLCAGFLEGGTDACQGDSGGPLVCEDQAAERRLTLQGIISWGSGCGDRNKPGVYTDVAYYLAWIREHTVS
The experiment is described as follows: Inhibition of factor 12a (unknown origin) using Ac-QRFRpNA as substrate incubated for 30 mins measured for 7 mins by morrison plot analysis.

The species entered for experiment [1] is Homo sapiens. The experiment is described as follows: Selectivity ratio of Ki for factor 10a (unknown origin) to Ki for factor 12a (unknown origin).
Another experiment addresses Coagulation factor X (Homo sapiens, UniProt P00742). The experiment is described as follows: Inhibition of factor 10a (unknown origin) using Ac-QRSRpNA as substrate incubated for 30 mins measured for 7 mins by morrison plot analysis.
For experiment [2], the target named is Urokinase-type plasminogen activator (Homo sapiens, UniProt P00749). The experiment is described as follows: Inhibition of uPA (unknown origin) incubated for 30 mins measured for 7 mins by morrison plot analysis.
The target of the next experiment is Prothrombin (Homo sapiens, UniProt P00734). The experiment is described as follows: Inhibition of thrombin (unknown origin) using Ac-ATPRpNA as substrate incubated for 30 mins measured for 7 mins by morrison plot analysis.
The species named for experiment [3] is Homo sapiens. The experiment is described as follows: Selectivity ratio of Ki for human plasma kallikrein to Ki for factor 12a (unknown origin).
The species named for experiment [4] is Homo sapiens. The experiment is described as follows: Selectivity ratio of Ki for factor 12a (unknown origin) to Ki for factor 10a (unknown origin).

SMILES strings stand for the structures. Peptide text beside a SMILES is read from it.

Coagulation factor X, sequence (P00742 41-179 limits assumed): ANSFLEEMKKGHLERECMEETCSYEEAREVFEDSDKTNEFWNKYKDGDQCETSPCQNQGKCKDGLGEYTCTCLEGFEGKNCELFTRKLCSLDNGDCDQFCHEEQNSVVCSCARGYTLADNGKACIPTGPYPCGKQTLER
Coagulation factor X, sequence (P00742 235-488 limits assumed): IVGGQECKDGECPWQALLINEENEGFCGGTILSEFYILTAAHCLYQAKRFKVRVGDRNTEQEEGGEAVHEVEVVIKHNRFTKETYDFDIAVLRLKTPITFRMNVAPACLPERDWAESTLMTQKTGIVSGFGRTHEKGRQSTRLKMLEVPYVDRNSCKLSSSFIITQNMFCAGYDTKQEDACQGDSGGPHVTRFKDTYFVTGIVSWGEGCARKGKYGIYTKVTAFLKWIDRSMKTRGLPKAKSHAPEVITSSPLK

In general, Ki refers to a dissociation constant, usually derived from enzyme kinetics or from competition with a known ligand. A lower Ki goes with a stronger hold on the target. In the case of `CC(=O)N[C@@H](CCC(N)=O)C(=O)N[C@@H](CCCNC(=N)N)C(=O)N[C@@H](Cc1ccccc1)C(=O)N[C@H](C=O)CCCNC(=N)N` (Ac-QRFR-aldehyde), the Ki was 0.18 µM on Coagulation factor XII and 0.57 µM on Coagulation factor X. Further, the Ratio Ki in the experiment filed under Homo sapiens [1] is 3.
In the case of `CC[C@H](C)[C@@H]1NC(=O)[C@H](CCCNC(=N)N)NC(=O)[C@H](Cc2ccccc2)NC(=O)[C@H](NC(=O)[C@H](CCC(N)=O)NC(=O)CNC(=O)[C@@H](N)CCCCN)CSSC[C@H]2NC(=O)[C@H](C)NC(=O)CNC(=O)[C@@H]3CCCN3C(=O)[C@@H]3CSSC[C@H](C(=O)NCC(=O)N[C@@H](CO)C(=O)NCC(=O)N[C@@H](CO)C(=O)N[C@@H](CC(=O)O)C(=O)O)NC(=O)[C@H](Cc4ccc(O)cc4)NC(=O)CNC(=O)[C@H](CC(N)=O)NC(=O)CNC(=O)[C@H](CCCNC(=N)N)NC(=O)[C@H](CSSC[C@H](NC(=O)[C@H](CCCCN)NC(=O)[C@H](CCCCN)NC(=O)[C@H](Cc4c[nH]c5ccccc45)NC1=O)C(=O)N[C@@H](CCCNC(=N)N)C(=O)N[C@@H](CCCNC(=N)N)C(=O)N[C@@H](CC(=O)O)C(=O)N[C@@H](CO)C(=O)N[C@@H](CC(=O)O)C(=O)N3)NC(=O)[C@H]([C@@H](C)CC)NC2=O`, the inhibition constant (Ki) in experiment [2] was over 50 µM; at Prothrombin, over 50 µM; on Coagulation factor X it was over 100 µM. For the same compound, the Ratio Ki in the experiment listed under Homo sapiens [3] was 9.
With `CC(=O)N[C@@H](CCC(N)=O)C(=O)N[C@@H](CCCNC(=N)N)C(=O)N[C@@H](CO)C(=O)N[C@H](C=O)CCCNC(=N)N` (Ac-QRSR-aldehyde), the figures for the Ki on Coagulation factor XII and on Coagulation factor X were 2.39 µM and 0.36 µM, respectively. The Ratio Ki in the experiment filed under Homo sapiens [4] was 6.
In the case of `CC[C@H](C)[C@@H]1NC(=O)[C@H](CCCCN)NC(=O)[C@@H]2CCCN2C(=O)[C@H](NC(=O)[C@@H](NC(=O)CNC(=O)CN)C(C)C)CSSC[C@H]2NC(=O)[C@H](C)NC(=O)CNC(=O)[C@@H]3CCCN3C(=O)[C@@H]3CSSC[C@H](C(=O)NCC(=O)N[C@@H](CO)C(=O)NCC(=O)N[C@@H](CO)C(=O)N[C@@H](CC(=O)O)C(=O)O)NC(=O)[C@H](Cc4ccc(O)cc4)NC(=O)CNC(=O)[C@H](CC(N)=O)NC(=O)CNC(=O)[C@H](CCCNC(=N)N)NC(=O)[C@H](CSSC[C@H](NC(=O)[C@H](CCCCN)NC(=O)[C@H](CCCCN)NC(=O)[C@H](CC(C)C)NC1=O)C(=O)N[C@@H](CCCNC(=N)N)C(=O)N[C@@H](CCCNC(=N)N)C(=O)N[C@@H](CC(=O)O)C(=O)N[C@@H](CO)C(=O)N[C@@H](CC(=O)O)C(=O)N3)NC(=O)[C@H]([C@@H](C)CC)NC2=O`, the Ki (in experiment [2]; at Prothrombin; at Coagulation factor X) was over 10 µM throughout.
For the compound `CC[C@H](C)[C@@H]1NC(=O)[C@H](CCCNC(=N)N)NC(=O)[C@H](CO)NC(=O)[C@H](NC(=O)[C@H](CCC(N)=O)NC(=O)CNC(=O)CN)CSSC[C@H]2NC(=O)[C@H](C)NC(=O)CNC(=O)[C@@H]3CCCN3C(=O)[C@@H]3CSSC[C@H](C(=O)NCC(=O)N[C@@H](CO)C(=O)NCC(=O)N[C@@H](CO)C(=O)N[C@@H](CC(=O)O)C(=O)O)NC(=O)[C@H](Cc4ccc(O)cc4)NC(=O)CNC(=O)[C@H](CC(N)=O)NC(=O)CNC(=O)[C@H](CCCNC(=N)N)NC(=O)[C@H](CSSC[C@H](NC(=O)[C@H](CCCCN)NC(=O)[C@H](CCCCN)NC(=O)[C@H](CC(C)C)NC1=O)C(=O)N[C@@H](CCCNC(=N)N)C(=O)N[C@@H](CCCNC(=N)N)C(=O)N[C@@H](CC(=O)O)C(=O)N[C@@H](CO)C(=O)N[C@@H](CC(=O)O)C(=O)N3)NC(=O)[C@H]([C@@H](C)CC)NC2=O`, the Ki in experiment [2] was over 10 µM; at Prothrombin, over 10 µM; on Coagulation factor X, 96 µM.
On to `CC[C@H](C)[C@@H]1NC(=O)[C@H](CCCNC(=N)N)NC(=O)[C@H](Cc2ccccc2)NC(=O)[C@H](NC(=O)[C@H](CCC(N)=O)NC(=O)CNC(=O)CN)CSSC[C@H]2NC(=O)[C@H](C)NC(=O)CNC(=O)[C@@H]3CCCN3C(=O)[C@@H]3CSSC[C@H](C(=O)NCC(=O)N[C@@H](CO)C(=O)NCC(=O)N[C@@H](CO)C(=O)N[C@@H](CC(=O)O)C(=O)O)NC(=O)[C@H](Cc4ccc(O)cc4)NC(=O)CNC(=O)[C@H](CC(N)=O)NC(=O)CNC(=O)[C@H](CCCNC(=N)N)NC(=O)[C@H](CSSC[C@H](NC(=O)[C@H](CCCCN)NC(=O)[C@H](CCCCN)NC(=O)[C@H](CC(C)C)NC1=O)C(=O)N[C@@H](CCCNC(=N)N)C(=O)N[C@@H](CCCNC(=N)N)C(=O)N[C@@H](CC(=O)O)C(=O)N[C@@H](CO)C(=O)N[C@@H](CC(=O)O)C(=O)N3)NC(=O)[C@H]([C@@H](C)CC)NC2=O`, for which the Ki was over 10 µM in experiment [2], over 10 µM at Prothrombin and 0.46 µM on Coagulation factor X. Also, in the experiment listed under Homo sapiens [1], the Ratio Ki amounted to 4.
